How the values were obtained:
[1] = target: T1, enzyme FAAH (fatty acid amide hydrolase) (Mus musculus, UniProt O08914); assay: radioenzymatic assay of FAAH inhibition (hydrolysis of anandamide [1-3H ethanolamine], mouse brain membrane homogenates); assay type: biochemical; details: 10 μM anandamide, 15 minutes at 25° C., read-out: IC50 (concentration inhibiting by 50% the control enzymatic activity of FAAH)
T1 construct: Membrane homogenates are prepared at the time of use by homogenizing the tissues in a Polytron; from tissue; host or cells: mouse brain (minus the cerebellum), membrane homogenate
T1 sequence (O08914 1-579): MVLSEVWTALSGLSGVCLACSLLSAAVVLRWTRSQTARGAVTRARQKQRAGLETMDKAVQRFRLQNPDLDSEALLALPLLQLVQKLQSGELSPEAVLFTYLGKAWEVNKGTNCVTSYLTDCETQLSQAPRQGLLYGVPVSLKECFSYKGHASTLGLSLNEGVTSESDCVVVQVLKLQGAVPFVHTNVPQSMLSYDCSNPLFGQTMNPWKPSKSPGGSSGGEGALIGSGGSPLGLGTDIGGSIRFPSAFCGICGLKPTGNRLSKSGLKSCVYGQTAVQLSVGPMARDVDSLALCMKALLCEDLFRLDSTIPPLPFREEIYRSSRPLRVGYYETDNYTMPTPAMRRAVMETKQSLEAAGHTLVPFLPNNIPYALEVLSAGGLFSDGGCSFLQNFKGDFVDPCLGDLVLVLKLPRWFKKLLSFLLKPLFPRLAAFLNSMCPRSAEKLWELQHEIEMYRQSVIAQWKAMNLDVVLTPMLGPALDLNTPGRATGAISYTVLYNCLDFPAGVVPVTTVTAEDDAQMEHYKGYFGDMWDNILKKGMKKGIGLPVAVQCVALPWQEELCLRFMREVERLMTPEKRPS
Description: The compounds of the invention were subjected to pharmacological tests allowing determination of their inhibitory effect on the enzyme FAAH (fatty acid amide hydrolase).
Accordingly, mouse brains (minus the cerebellum) are removed and stored at −80° C. Membrane homogenates are prepared at the time of use by homogenizing the tissues in a Polytron in a 10 mM Tris-HCl buffer (pH 8.0) containing 150 mM NaCl and 1 mM EDTA. The enzymatic reaction is subsequently conducted in 70 μl of buffer containing bovine serum albumin without fatty acids (1 mg/ml). In succession the test compounds, at various concentrations, anandamide [1-^3H ethanolamine] (specific activity: 15-20 Ci/mmol) diluted to 10 μM with cold anandamide, and the membrane preparation (400 μg of frozen tissue per assay) are added. After 15 minutes at 25° C., the enzymatic reaction is terminated by adding 140 μl of chloroform/methanol (2:1). The mixture is stirred for 10 minutes and then centrifuged for 15 minutes at 3500 g. An aliquot (30 μl) of the aqueous phase containing the ethanolamine [1-^3H] is counted by liquid scintillation.

[2] = tested on: male OF1 mice; assay: analgesia test: abdominal stretches induced by PBQ (phenylbenzoquinone); assay type: in vivo; details: 10 mg/kg p.o. at 120 minutes
Description: The in vivo activity of the compounds of the invention was evaluated in an analgesia test.
Accordingly, intraperitoneal (i.p.) administration of PBQ (phenylbenzoquinone, 2 mg/kg in a 0.9% sodium chloride solution containing 5% of ethanol) to male OF1 mice weighing 25 to 30 g causes abdominal stretches, on average 30 twists or contractions during the period from 5 to 15 minutes after injection. The test compounds are administered orally (p.o.) or intraperitoneally (i.p.) in suspension in Tween 80 at 0.5%, 60 minutes or 120 minutes before the administration of PBQ.

Row | melting point [°C] | Structure (SMILES) | IC50 [1] [nM] | reduction of the number of stretches induced by PBQ [2] [%]
1 | 106 to 110 | CNC(=O)COC(=O)NCCC1CCN(Cc2ccc(-c3ccccc3)cc2)CC1 [Compound 25, 2-(methylamino)-2-oxoethyl 2-[1-(biphenyl-4-ylmethyl)piperidin-4-yl]ethylcarbamate] | 225 | –
2 | 143 to 145 | CNC(=O)COC(=O)NCCC1CCN(Cc2ccc(-c3ccc(F)cc3)cc2F)CC1 [Compound 26, 2-(methylamino)-2-oxoethyl 2-{1-[(3,4′-difluorobiphenyl-4-yl)methyl]piperidin-4-yl}ethylcarbamate] | – | 56
3 | – | CNC(=O)COC(=O)NCC1CCN(CCOc2ccc(Cl)cc2Cl)CC1 [Compound 77] | 49 | –

Source: patent US7781590B2, “Piperidinylalkylcarbamate derivatives, methods for their preparation and the therapeutic use thereof as fatty acid amido hydrolase enzyme inhibitors” (Sanofi-Aventis, priority 2004, dated 2010)
